Experimental data taken from ChEMBL document CHEMBL4177722, “Small molecule inhibitors of anthrax edema factor” (Bioorg Med Chem Lett, 2018).

Key:
[1] = target: T1, Calmodulin-sensitive adenylate cyclase (Bacillus anthracis, UniProt P40136); assay: Inactivation of Bacillus anthracis edema factor in presence of CaM incubated for 10 to 240 mins by EnzChek pyrophosphate assay
T1 sequence (P40136 whole entry): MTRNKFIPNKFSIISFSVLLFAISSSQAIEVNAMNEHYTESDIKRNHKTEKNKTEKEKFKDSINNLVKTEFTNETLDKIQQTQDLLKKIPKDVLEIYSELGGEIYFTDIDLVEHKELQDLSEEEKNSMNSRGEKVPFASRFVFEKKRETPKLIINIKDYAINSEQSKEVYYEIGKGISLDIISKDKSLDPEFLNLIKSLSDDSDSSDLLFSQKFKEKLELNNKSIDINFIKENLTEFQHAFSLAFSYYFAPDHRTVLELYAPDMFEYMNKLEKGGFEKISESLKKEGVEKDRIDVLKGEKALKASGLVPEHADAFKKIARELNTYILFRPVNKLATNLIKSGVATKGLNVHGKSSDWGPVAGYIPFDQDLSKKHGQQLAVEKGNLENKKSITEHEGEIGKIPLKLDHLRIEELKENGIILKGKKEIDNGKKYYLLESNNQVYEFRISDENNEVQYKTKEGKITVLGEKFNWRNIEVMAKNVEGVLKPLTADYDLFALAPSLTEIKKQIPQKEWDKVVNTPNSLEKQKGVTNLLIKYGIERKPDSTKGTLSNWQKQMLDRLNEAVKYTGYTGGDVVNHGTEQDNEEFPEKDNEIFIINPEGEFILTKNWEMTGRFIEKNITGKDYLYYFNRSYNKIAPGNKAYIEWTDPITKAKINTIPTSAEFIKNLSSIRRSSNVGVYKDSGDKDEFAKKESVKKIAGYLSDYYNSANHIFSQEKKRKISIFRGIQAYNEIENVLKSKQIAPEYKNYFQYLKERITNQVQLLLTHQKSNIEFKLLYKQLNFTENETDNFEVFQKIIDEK

RAW264.7 [2] = assay: Cytotoxicity against mouse RAW264.7 cells assessed a reduction in cell viability incubated for 24 hrs in absence of 10% FBS by MTT assay; type: cell-based; details: raw264.7, 24 h
[3] = target: T2, Calmodulin-sensitive adenylate cyclase (Bacillus anthracis) (UniProt P40136); assay: Inactivation of Bacillus anthracis edema factor assessed as inactivation rate constant in presence of CaM incubated for 10 to 240 mins by EnzChek pyrophosphate assay
T2 sequence (whole entry): T1 sequence (P40136 whole entry)

[4] = target: T2, Calmodulin-sensitive adenylate cyclase (Bacillus anthracis); assay: Inactivation of Bacillus anthracis edema factor assessed as Kinact/Ki ratio in presence of CaM incubated for 10 to 240 mins by EnzChek pyrophosphate assay relative to FSBA
[5] = (§1) Cytotoxicity against mouse RAW264.7 cells assessed a reduction in cell viability incubated for 24 hrs in presence of 10% FBS by MTT assay; type: cell-based; details: RAW264.7 cells
[6] = target: T2, Calmodulin-sensitive adenylate cyclase (Bacillus anthracis); assay: Inactivation of Bacillus anthracis edema factor assessed as Kinact/Ki ratio in presence of CaM incubated for 10 to 240 mins by EnzChek pyrophosphate assay
[7] = target: T2, Calmodulin-sensitive adenylate cyclase (Bacillus anthracis); assay: Irreversible inactivation of Bacillus anthracis edema factor pre-incubated for 90 mins followed by drug filtration by EnzChek pyrophosphate assay
[8] = Stability in C57BL/6 mouse plasma assessed as half life at 10 uM by LC-MS method; type: ADME, cell-free, C57B/6
RAW264.7 [9] = assay: as §1; type: cell-based; details: raw264.7, 24 h
[10] = target: RAC-alpha serine/threonine-protein kinase (Homo sapiens) (UniProt P31749); assay: Inhibition of human AKT1 at 10 uM by ADP-Glo kinase assay
Sequence of RAC-alpha serine/threonine-protein kinase (Homo sapiens) (P31749 whole entry, canonical isoform): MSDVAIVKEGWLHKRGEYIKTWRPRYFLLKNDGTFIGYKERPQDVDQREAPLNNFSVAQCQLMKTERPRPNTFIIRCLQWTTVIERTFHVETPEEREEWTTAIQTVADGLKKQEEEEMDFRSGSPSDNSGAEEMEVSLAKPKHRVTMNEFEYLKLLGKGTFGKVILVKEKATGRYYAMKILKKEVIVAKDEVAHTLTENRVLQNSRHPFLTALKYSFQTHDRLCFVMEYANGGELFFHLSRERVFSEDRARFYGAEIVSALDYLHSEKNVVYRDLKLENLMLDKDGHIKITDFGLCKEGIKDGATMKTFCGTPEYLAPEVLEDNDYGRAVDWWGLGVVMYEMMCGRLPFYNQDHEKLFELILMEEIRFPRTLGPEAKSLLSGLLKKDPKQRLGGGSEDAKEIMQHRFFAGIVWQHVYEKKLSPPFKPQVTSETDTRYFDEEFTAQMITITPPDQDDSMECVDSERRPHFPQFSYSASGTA

[11] = target: Casein kinase I isoform alpha (Homo sapiens) (UniProt P48729); assay: Inhibition of human CK1a1 at 10 uM by ADP-Glo kinase assay
Sequence of Casein kinase I isoform alpha (Homo sapiens) (P48729 2-337 limits assumed): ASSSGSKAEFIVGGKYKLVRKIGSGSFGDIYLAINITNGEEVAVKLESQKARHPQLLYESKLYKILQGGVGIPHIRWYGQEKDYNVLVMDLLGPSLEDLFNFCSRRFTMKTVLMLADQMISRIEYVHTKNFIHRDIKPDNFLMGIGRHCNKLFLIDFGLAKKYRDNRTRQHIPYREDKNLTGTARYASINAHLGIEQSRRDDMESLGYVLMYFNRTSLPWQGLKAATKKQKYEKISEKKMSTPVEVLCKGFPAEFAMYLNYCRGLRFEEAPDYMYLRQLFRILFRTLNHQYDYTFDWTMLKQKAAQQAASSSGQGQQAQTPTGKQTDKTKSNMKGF

[12] = target: T3, Inhibitor of nuclear factor kappa-B kinase subunit beta (Homo sapiens) (UniProt O14920); assay: Inhibition of human IKKbeta at 10 uM by ADP-Glo kinase assay
T3 sequence (whole entry): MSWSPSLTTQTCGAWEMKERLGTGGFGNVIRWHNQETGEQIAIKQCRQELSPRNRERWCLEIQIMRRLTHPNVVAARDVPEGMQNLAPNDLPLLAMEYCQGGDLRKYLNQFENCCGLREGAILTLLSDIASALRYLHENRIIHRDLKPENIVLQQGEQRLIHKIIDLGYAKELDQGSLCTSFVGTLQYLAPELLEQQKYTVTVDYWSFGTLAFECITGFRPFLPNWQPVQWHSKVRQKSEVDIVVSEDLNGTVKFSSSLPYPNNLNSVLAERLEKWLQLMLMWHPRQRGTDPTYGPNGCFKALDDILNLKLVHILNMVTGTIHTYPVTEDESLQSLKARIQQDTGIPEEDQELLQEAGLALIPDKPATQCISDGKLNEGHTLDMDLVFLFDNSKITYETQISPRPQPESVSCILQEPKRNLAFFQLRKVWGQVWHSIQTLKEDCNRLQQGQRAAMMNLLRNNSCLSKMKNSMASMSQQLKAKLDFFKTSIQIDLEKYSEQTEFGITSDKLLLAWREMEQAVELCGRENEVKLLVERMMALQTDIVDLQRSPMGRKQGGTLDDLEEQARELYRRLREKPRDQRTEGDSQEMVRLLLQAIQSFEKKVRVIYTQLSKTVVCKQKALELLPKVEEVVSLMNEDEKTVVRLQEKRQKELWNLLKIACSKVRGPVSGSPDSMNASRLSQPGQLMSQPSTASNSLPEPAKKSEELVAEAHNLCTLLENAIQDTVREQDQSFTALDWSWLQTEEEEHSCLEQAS

[13] = target: Mitogen-activated protein kinase 14 (Homo sapiens) (UniProt Q16539); assay: Inhibition of human p38alpha at 10 uM by ADP-Glo kinase assay
Sequence of Mitogen-activated protein kinase 14 (Homo sapiens) (Q16539 whole entry): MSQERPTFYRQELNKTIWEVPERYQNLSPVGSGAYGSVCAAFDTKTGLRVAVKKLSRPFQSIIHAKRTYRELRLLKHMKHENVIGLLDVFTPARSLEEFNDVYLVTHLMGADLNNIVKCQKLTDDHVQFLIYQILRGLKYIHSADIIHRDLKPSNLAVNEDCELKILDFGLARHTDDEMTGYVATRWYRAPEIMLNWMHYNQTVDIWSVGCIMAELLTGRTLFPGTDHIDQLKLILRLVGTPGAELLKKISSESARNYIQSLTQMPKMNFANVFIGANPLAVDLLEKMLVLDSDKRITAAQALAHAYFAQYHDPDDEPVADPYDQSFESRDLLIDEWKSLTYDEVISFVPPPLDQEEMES

[14] = target: Casein kinase II subunit alpha (Homo sapiens) (UniProt P68400); assay: Inhibition of human CK2a1 at 10 uM by ADP-Glo kinase assay
Sequence of Casein kinase II subunit alpha (Homo sapiens) (P68400 whole entry, looked up, canonical isoform): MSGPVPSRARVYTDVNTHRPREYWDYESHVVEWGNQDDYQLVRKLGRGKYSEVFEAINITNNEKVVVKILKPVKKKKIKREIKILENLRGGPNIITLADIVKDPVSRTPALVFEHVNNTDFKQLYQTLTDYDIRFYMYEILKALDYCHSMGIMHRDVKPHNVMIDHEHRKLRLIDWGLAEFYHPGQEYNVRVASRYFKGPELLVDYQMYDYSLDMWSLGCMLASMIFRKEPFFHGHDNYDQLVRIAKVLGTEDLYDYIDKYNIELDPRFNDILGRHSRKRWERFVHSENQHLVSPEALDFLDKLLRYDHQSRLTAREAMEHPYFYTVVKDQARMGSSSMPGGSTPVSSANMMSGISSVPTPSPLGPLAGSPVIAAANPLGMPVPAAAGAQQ

[15] = target: Casein kinase I isoform gamma-1 (Homo sapiens) (UniProt Q9HCP0); assay: Inhibition of human CK1g1 at 10 uM by ADP-Glo kinase assay
Sequence of Casein kinase I isoform gamma-1 (Homo sapiens) (Q9HCP0 whole entry, looked up, canonical isoform): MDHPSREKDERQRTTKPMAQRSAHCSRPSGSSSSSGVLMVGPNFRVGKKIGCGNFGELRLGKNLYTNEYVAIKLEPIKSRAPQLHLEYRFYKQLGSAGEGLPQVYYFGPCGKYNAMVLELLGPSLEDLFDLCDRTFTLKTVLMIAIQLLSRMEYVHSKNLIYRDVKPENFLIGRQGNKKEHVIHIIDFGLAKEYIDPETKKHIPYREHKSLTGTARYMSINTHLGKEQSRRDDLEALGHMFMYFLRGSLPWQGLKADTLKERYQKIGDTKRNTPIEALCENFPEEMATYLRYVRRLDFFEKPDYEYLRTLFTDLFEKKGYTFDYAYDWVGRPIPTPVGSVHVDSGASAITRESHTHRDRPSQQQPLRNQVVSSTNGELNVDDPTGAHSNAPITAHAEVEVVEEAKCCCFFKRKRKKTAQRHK

[16] = target: Misshapen-like kinase 1 (Homo sapiens) (UniProt Q8N4C8); assay: Inhibition of human MINK at 10 uM by ADP-Glo kinase assay
Sequence of Misshapen-like kinase 1 (Homo sapiens) (Q8N4C8 whole entry, looked up): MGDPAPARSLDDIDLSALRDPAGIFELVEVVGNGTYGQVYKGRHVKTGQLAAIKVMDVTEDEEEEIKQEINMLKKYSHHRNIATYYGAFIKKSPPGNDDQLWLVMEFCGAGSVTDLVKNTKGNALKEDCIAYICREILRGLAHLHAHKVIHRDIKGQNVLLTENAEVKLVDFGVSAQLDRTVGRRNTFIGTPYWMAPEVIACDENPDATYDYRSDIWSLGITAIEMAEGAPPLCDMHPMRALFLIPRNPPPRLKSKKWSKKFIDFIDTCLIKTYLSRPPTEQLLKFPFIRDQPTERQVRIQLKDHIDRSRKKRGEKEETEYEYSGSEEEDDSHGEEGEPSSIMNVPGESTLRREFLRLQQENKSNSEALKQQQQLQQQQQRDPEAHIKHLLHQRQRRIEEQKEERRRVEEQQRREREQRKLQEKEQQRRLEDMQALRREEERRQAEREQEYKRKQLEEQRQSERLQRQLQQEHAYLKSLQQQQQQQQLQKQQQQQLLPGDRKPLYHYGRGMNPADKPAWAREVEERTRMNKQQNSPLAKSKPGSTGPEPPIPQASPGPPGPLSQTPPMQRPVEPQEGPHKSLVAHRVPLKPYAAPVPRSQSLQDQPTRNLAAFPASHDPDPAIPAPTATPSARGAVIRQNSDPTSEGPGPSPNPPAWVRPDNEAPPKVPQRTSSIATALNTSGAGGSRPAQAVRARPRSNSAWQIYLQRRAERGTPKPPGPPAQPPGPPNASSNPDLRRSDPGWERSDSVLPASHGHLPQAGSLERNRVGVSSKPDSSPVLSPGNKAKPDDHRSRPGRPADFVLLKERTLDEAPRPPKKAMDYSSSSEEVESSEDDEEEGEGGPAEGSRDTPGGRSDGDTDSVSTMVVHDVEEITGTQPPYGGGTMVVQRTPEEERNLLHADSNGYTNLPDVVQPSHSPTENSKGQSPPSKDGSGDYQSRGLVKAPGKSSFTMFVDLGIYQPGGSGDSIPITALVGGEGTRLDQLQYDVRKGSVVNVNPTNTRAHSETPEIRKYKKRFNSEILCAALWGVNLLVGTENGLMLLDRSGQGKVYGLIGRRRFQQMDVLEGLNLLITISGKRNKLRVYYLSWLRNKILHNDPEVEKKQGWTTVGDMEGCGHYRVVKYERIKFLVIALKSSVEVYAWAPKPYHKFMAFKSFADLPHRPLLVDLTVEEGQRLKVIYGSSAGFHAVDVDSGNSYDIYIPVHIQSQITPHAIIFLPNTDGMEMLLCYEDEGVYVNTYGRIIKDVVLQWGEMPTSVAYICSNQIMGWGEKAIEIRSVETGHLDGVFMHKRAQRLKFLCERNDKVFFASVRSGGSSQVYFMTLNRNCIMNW

Cc1nc(N)cc(OCCNC(=O)c2ccc(S(=O)(=O)F)cc2)n1
Ki [1]: 286 µM | Activity (RAW264.7 [2]): Non-Toxic | Kinact [3]: 0.158 min⁻¹ | Ratio [4]: 0.7 | CC50 at 24 h [5]: > 100 µM | Ratio [6]: 9.2

Cc1cc(OC2CCN(Cc3ccc(S(=O)(=O)F)cc3)CC2)cc(N)n1
Ki [1]: 42.2 µM | Activity (RAW264.7 [2]): Non-Toxic | Kinact [3]: 0.02 min⁻¹ | Ratio [4]: 0.6 | CC50 at 24 h [5]: > 100 µM | Ratio [6]: 7.9

Nc1ncnc2c1ncn2C1CCN(C(=O)c2ccc(S(=O)(=O)F)cc2)CC1
Ki [1]: 9.4 µM | Activity (RAW264.7 [2]): Non-Toxic | Kinact [3]: 0.01 min⁻¹ | Ratio [4]: 1.3 | CC50 at 24 h [5]: > 100 µM | Ratio [6]: 18

Cc1nc(N)c2ncn(C3CCN(Cc4ccc(S(=O)(=O)F)cc4)CC3)c2n1
Ki [1]: 14.7 µM | Activity (RAW264.7 [2]): Non-Toxic | Kinact [3]: 0.028 min⁻¹ | Ratio [4]: 2.3 | CC50 at 24 h [5]: > 100 µM | Ratio [6]: 31.2

Nc1ncnc2c1ncn2CCCNC(=O)c1ccc(S(=O)(=O)F)cc1
Ki [1]: 37.7 µM | Activity (RAW264.7 [2]): Non-Toxic | Kinact [3]: 0.012 min⁻¹ | Ratio [4]: 0.4 | CC50 at 24 h [5]: > 100 µM | Ratio [6]: 5.3

Nc1ncnc2c1ncn2CCOC(=O)c1ccc(S(=O)(=O)F)cc1
Ki [1]: 25.9 µM | Activity (RAW264.7 [2]): Non-Toxic | Kinact [3]: 0.011 min⁻¹ | Ratio [4]: 0.5 | CC50 at 24 h [5]: > 100 µM | Ratio [6]: 6.9

Nc1cc(OCCNC(=O)c2ccc(S(=O)(=O)F)cc2)ccn1
Ki [1]: 127 µM | Activity (RAW264.7 [2]): Non-Toxic | Kinact [3]: 0.028 min⁻¹ | Ratio [4]: 0.3 | CC50 at 24 h [5]: > 100 µM | Ratio [6]: 3.6

Nc1ncnc2c1ncn2[C@@H]1O[C@H](COC(=O)c2ccc(S(=O)(=O)F)cc2)[C@@H](O)[C@H]1O
Ki [1]: 18.4 µM | Activity (RAW264.7 [2]): Non-Toxic | Kinact [3]: 0.015 min⁻¹ | inhibition [7]: Dose-dependent effect | CC50 at 24 h [5]: > 100 µM | Ratio [6]: 13.4

Nc1cc(OC2CN(C(=O)c3ccc(S(=O)(=O)F)cc3)C2)ccn1
Ki [1]: 10.9 µM | Activity (RAW264.7 [2]): Non-Toxic | Kinact [3]: 0.003 min⁻¹ | Ratio [4]: 0.4 | Ratio [6]: 4.9

Cc1nc(N)c2cnn(C3CCN(Cc4ccc(S(=O)(=O)F)cc4)CC3)c2n1
Ki [1]: 4.6 µM | Activity (RAW264.7 [2]): Non-Toxic | Kinact [3]: 0.052 min⁻¹ | half-life at 10 µM [8]: 1.2 h | Ratio [4]: 14.2 | CC50 at 24 h [5]: > 100 µM | Ratio [6]: 190

Nc1ncnc2c1cnn2C1CCN(C(=O)c2ccc(S(=O)(=O)F)cc2)CC1
Ki [1]: 3.7 µM | Activity (RAW264.7 [2]): Non-Toxic | Kinact [3]: 0.26 min⁻¹ | Ratio [4]: 86.7 | CC50 at 24 h [5]: > 100 µM | Ratio [6]: 1160

Cc1nc(N)c2cnn(CCCNC(=O)c3ccc(S(=O)(=O)F)cc3)c2n1
Ki [1]: 34.8 µM | Activity (RAW264.7 [2]): Non-Toxic | Kinact [3]: 0.121 min⁻¹ | Ratio [4]: 4.3 | CC50 at 24 h [5]: > 100 µM | Ratio [6]: 58

Cc1nc(N)c2ncn(C3CCN(C(=O)c4ccc(S(=O)(=O)F)cc4)CC3)c2n1
Ki [1]: 16.5 µM | Activity (RAW264.7 [2]): Non-Toxic | Kinact [3]: 0.062 min⁻¹ | Ratio [4]: 4.7 | CC50 at 24 h [5]: > 100 µM | Ratio [6]: 62.8

Nc1cc(OCc2ccc(S(=O)(=O)F)cc2)ccn1
Ki [1]: 955 µM | Activity (RAW264.7 [2]): Non-Toxic | Kinact [3]: 0.198 min⁻¹ | Ratio [4]: 0.3 | CC50 (RAW264.7 [9]): 86 µM | Ratio [6]: 3.5

Nc1cc(OCCCNCc2ccc(S(=O)(=O)F)cc2)ccn1
Ki [1]: 222 µM | Activity (RAW264.7 [2]): Non-Toxic | Kinact [3]: 0.063 min⁻¹ | Ratio [4]: 0.4 | CC50 at 24 h [5]: > 100 µM | Ratio [6]: 4.7

Nc1ncnc2c1ncn2[C@@H]1CCCN(C(=O)c2ccc(S(=O)(=O)F)cc2)C1
Ki [1]: 96.5 µM | Activity (RAW264.7 [2]): Non-Toxic | Kinact [3]: 0.039 min⁻¹ | Ratio [4]: 0.5 | CC50 at 24 h [5]: > 100 µM | Ratio [6]: 6.7

CCOC(=O)C1=C[C@]2(CC)CCCN3CCc4c(n1c1ccccc41)[C@@H]32 [VINPOCETINE]
half-life at 10 µM [8]: 13.1 h

Nc1cc(OC2CCN(C(=O)c3ccc(S(=O)(=O)F)cc3)CC2)ccn1
Activity (RAW264.7 [2]): Non-Toxic | Kinact [3]: 0.049 to 0.069 min⁻¹ | half-life at 10 µM [8]: 0.66 h | Ratio [4]: 0.4 to 1.4 | CC50 at 24 h [5]: > 100 µM | Ratio [6]: 5.8 to 19.3

CN[C@@H]1C[C@H]2O[C@@](C)([C@@H]1OC)n1c3ccccc3c3c4c(c5c6ccccc6n2c5c31)C(=O)NC4
inhibition [10]: 61% | inhibition [11]: 51% | inhibition [12]: 64% | inhibition [13]: 11% | inhibition [14]: 64% | inhibition [15]: 38% | inhibition [16]: 98%

Nc1cc(OCCNCc2ccc(S(=O)(=O)F)cc2)ccn1
Ki [1]: 49.6 µM | Activity (RAW264.7 [2]): Non-Toxic | Kinact [3]: 0.029 min⁻¹ | Ratio [4]: 0.7 | CC50 at 24 h [5]: > 100 µM | Ratio [6]: 9.6

Cc1nc(N)c2cnn(C3CCN(C(=O)c4ccc(S(=O)(=O)F)cc4)CC3)c2n1
Ki [1]: 2.1 µM | Activity (RAW264.7 [2]): Non-Toxic | Kinact [3]: 0.072 min⁻¹ | half-life at 10 µM [8]: 1.2 h | Ratio [4]: 43.3 | CC50 at 24 h [5]: > 100 µM | Ratio [6]: 581

Nc1cc(O[C@@H]2CCN(C(=O)c3ccc(S(=O)(=O)F)cc3)C2)ccn1
Ki [1]: 38.9 µM | Activity (RAW264.7 [2]): Non-Toxic | Kinact [3]: 0.008 min⁻¹ | Ratio [4]: 0.3 | Ratio [6]: 3.5

Cc1nc(N)cc(OC2CCN(C(=O)c3ccc(S(=O)(=O)F)cc3)CC2)n1
Ki [1]: 27.6 µM | Activity (RAW264.7 [2]): Non-Toxic | Kinact [3]: 0.112 min⁻¹ | Ratio [4]: 5.1 | CC50 at 24 h [5]: > 100 µM | Ratio [6]: 67.8

Nc1cc(OCCCNC(=O)c2ccc(S(=O)(=O)F)cc2)ccn1
Ki [1]: 88.1 µM | Activity (RAW264.7 [2]): Non-Toxic | Kinact [3]: 0.043 min⁻¹ | Ratio [4]: 0.6 | CC50 at 24 h [5]: > 100 µM | Ratio [6]: 8.1
